From PubChem BioAssay (NCI) come the findings set out here.

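Tested at 5 concentrations; 48 h exposure; 96-well plates; endpoints linearly interpolated, else capped at highest concentration. Definition used: TGI = concentration required for complete inhibition of growth.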

The first assay has as its system A498 renal. Nature of the assay: NCI-60 cell line screen, 48 h.
For the compound `CCOC(=O)C1=C(NC)OCC1=O`, the TGI is more than 100 µM.

In turn, `CCOC(=O)C1(C)CCC(C(C(=O)O)C(=O)O)CC1=O` (configuration not stated) came in with a TGI of more than 100 µM.

Take `CC1NOC(=O)C1N=Nc1ccc(Cl)cc1Cl` (configuration not stated): the TGI was determined as 99.5 µM.

The compound `O=C1NC(=O)C2C(=O)NC(=O)C1C2Cc1ccco1` (configuration not stated) displayed a TGI of more than 100 µM.

For `CCOC(=O)/C(=C/c1ccccn1)C(=O)c1ccccc1`, the TGI turned out to be 43.1 µM.

`COc1ccc2nc(NC(=O)C(=O)CC(=O)c3ccc([N+](=O)[O-])cc3)sc2c1`: the TGI is more than 100 µM.

As to `COc1cc(/C=C2\NC(=O)C(Cc3cc(OC)c(OC)c(C)c3OC)N(C(C)=O)C2=O)c(OC)c(C)c1OC` (configuration not stated), the TGI is more than 100 µM.

Take `C[C@H](C(=O)O)C(=O)NC(=O)N(Cc1ccccc1)N=O`: the TGI was more than 100 µM.

In turn, `NNC(=O)C(=O)NN=C(C(Cl)(Cl)CO)C(Cl)(Cl)CO` registered a TGI of more than 100 µM.

Compound `COc1ccc(/C=C2\C(=O)N(NC(C)=O)c3ccccc32)cc1` yielded a TGI of more than 100 µM.

`O=C1N[C@@H]2CCCC[C@@H]2C12CCCCC2` returned a TGI of more than 100 µM.

Consider `NC1=NC(Cn2nc(-c3ccccc3)c3ccccc3c2=O)=NNC(=O)N1`, for which the TGI was more than 100 µM.

As to `OC(c1ccccc1Br)(c1ccccc1Br)C(F)(F)F`, the TGI stood at 51.9 µM.

In turn, `CC(=O)OC1COC(N2CCc3cc([N+](=O)[O-])ccc32)C(OC(C)=O)C1OC(C)=O` (configuration not stated) showed a TGI of more than 100 µM.

Consider `Cc1nc2ccccc2c(=O)n1/N=C(\N=Nc1ccccc1Cl)c1ccccc1Cl`, for which the TGI is more than 100 µM.

On to `CCc1cccc(CC)c1NC(=O)/C(Cl)=C(/Cl)C(=O)O`, for which the TGI is more than 100 µM.

Regarding `Nc1nc(=S)c2c(ncn2CCO)[nH]1`, the TGI is more than 100 µM.

As to `c1ccc(C(c2ccccc2)c2ccccn2)cc1`, the TGI is more than 100 µM.

The subject of another assay is CCRF-CEM leukemia. Nature of the assay: NCI-60 cell line screen, 48 h.
As for `CCOC(=O)C1=C(NC)OCC1=O`, the TGI is more than 100 µM.

On to `CCOC(=O)C1(C)CCC(C(C(=O)O)C(=O)O)CC1=O` (configuration not stated), for which the TGI is more than 100 µM.

`COC(=O)C1=C(C(=O)OC)C2(c3ccccc3)OC1(c1ccccc1)c1cc3ccccc3cc12` came in with a TGI of 4.55 µM.

For the compound `CC1NOC(=O)C1N=Nc1ccc(Cl)cc1Cl` (configuration not stated), the TGI was more than 100 µM.

The compound `O=C1NC(=O)C2C(=O)NC(=O)C1C2Cc1ccco1` (configuration not stated) returned a TGI of more than 100 µM.

Compound `CCOC(=O)/C(=C/c1ccccn1)C(=O)c1ccccc1` returned a TGI of more than 31 µM.

`COc1ccc2nc(NC(=O)C(=O)CC(=O)c3ccc([N+](=O)[O-])cc3)sc2c1` yielded a TGI of more than 100 µM.

For the compound `CC(=O)Nc1ccc(C2CC(c3ccc([N+](=O)[O-])cc3)=Nc3ccccc3S2=O)cc1` (configuration not stated), the TGI is 31.8 µM.

Compound `COc1cc(/C=C2\NC(=O)C(Cc3cc(OC)c(OC)c(C)c3OC)N(C(C)=O)C2=O)c(OC)c(C)c1OC` (configuration not stated) yielded a TGI of more than 100 µM.

`C[C@H](C(=O)O)C(=O)NC(=O)N(Cc1ccccc1)N=O` returned a TGI of more than 100 µM.

The compound `NNC(=O)C(=O)NN=C(C(Cl)(Cl)CO)C(Cl)(Cl)CO` had a TGI of 61.2 µM.

Consider `COc1ccc(/C=C2\C(=O)N(NC(C)=O)c3ccccc32)cc1`, for which the TGI was more than 100 µM.

For the compound `O=C1N[C@@H]2CCCC[C@@H]2C12CCCCC2`, the TGI is more than 100 µM.

Take `COc1ccc2ccccc2c1C1=NC(C)(C)CO1`: the TGI was more than 100 µM.

`NC1=NC(Cn2nc(-c3ccccc3)c3ccccc3c2=O)=NNC(=O)N1` gave a TGI of more than 100 µM.

As to `O=C(CCCC(=O)Nc1ccc(Cl)cc1Cl)CC(=O)c1ccc2ccccc2c1`, the TGI was more than 100 µM.

Regarding `O=C(NCCc1ccccc1)C1C(=O)C(=O)N(CCc2ccccc2)C1=O` (configuration not stated), the TGI is more than 100 µM.

In turn, `CC(=O)OC1COC(N2CCc3cc([N+](=O)[O-])ccc32)C(OC(C)=O)C1OC(C)=O` (configuration not stated) returned a TGI of more than 100 µM.

The compound `CCOC(=O)C1S(=O)(=O)OCCOS1(=O)=O` had a TGI of more than 100 µM.

Compound `CC12OC(=O)C(C#N)C1(C)C1C(=O)CCCC12` (configuration not stated) registered a TGI of more than 100 µM.

Compound `Cc1nc2ccccc2c(=O)n1/N=C(\N=Nc1ccccc1Cl)c1ccccc1Cl` yielded a TGI of more than 100 µM.

For `CCc1cccc(CC)c1NC(=O)/C(Cl)=C(/Cl)C(=O)O`, the TGI amounted to 48.8 µM.

With `CCCC(=O)CC(C)C(=O)C(=O)NC12CC3CC(CC(C3)C1)C2` (configuration not stated), the TGI is more than 100 µM.

`CC(=O)OCC(=O)[C@@]1(O)CC[C@H]2[C@@H]3C[C@H](C)C4=CC(=O)C=C[C@]4(C)[C@@]3(F)[C@@H](O)C[C@@]21C` had a TGI of more than 100 µM.

Compound `Nc1nc(=S)c2c(ncn2CCO)[nH]1` came in with a TGI of more than 100 µM.

In turn, `COc1cc(/C=C/c2csnn2)cc(OC)c1OC` registered a TGI of more than 100 µM.

Regarding `c1ccc(C(c2ccccc2)c2ccccn2)cc1`, the TGI was more than 100 µM.

A further assay has as its system EKVX NSCLC. As to the kind of experiment: NCI-60 cell line screen, 48 h.
As to `CCOC(=O)C1=C(NC)OCC1=O`, the TGI is more than 100 µM.

For the compound `CCOC(=O)C1(C)CCC(C(C(=O)O)C(=O)O)CC1=O` (configuration not stated), the TGI is more than 100 µM.

In the case of `COC(=O)C1=C(C(=O)OC)C2(c3ccccc3)OC1(c1ccccc1)c1cc3ccccc3cc12`, the TGI was determined as 3.33 µM.

`CC1NOC(=O)C1N=Nc1ccc(Cl)cc1Cl` (configuration not stated) yielded a TGI of 73.4 µM.

`O=C1NC(=O)C2C(=O)NC(=O)C1C2Cc1ccco1` (configuration not stated) had a TGI of more than 100 µM.

`CCOC(=O)/C(=C/c1ccccn1)C(=O)c1ccccc1` yielded a TGI of 42.8 µM.

For `COc1ccc2nc(NC(=O)C(=O)CC(=O)c3ccc([N+](=O)[O-])cc3)sc2c1`, the TGI is more than 100 µM.

As to `CC(=O)Nc1ccc(C2CC(c3ccc([N+](=O)[O-])cc3)=Nc3ccccc3S2=O)cc1` (configuration not stated), the TGI was 97.5 µM.

`COc1cc(/C=C2\NC(=O)C(Cc3cc(OC)c(OC)c(C)c3OC)N(C(C)=O)C2=O)c(OC)c(C)c1OC` (configuration not stated) showed a TGI of more than 100 µM.

In the case of `C[C@H](C(=O)O)C(=O)NC(=O)N(Cc1ccccc1)N=O`, the TGI was more than 100 µM.

As for `NNC(=O)C(=O)NN=C(C(Cl)(Cl)CO)C(Cl)(Cl)CO`, the TGI is more than 100 µM.

For the compound `COc1ccc(/C=C2\C(=O)N(NC(C)=O)c3ccccc32)cc1`, the TGI was more than 100 µM.

Turning to `O=C1N[C@@H]2CCCC[C@@H]2C12CCCCC2`, the TGI is more than 100 µM.

In turn, `COc1ccc2ccccc2c1C1=NC(C)(C)CO1` returned a TGI of more than 100 µM.

In turn, `O=C(CCCC(=O)Nc1ccc(Cl)cc1Cl)CC(=O)c1ccc2ccccc2c1` gave a TGI of more than 100 µM.

The compound `O=C(NCCc1ccccc1)C1C(=O)C(=O)N(CCc2ccccc2)C1=O` (configuration not stated) returned a TGI of more than 100 µM.

`OC(c1ccccc1Br)(c1ccccc1Br)C(F)(F)F`: the TGI is more than 100 µM.

For the compound `CC(=O)OC1COC(N2CCc3cc([N+](=O)[O-])ccc32)C(OC(C)=O)C1OC(C)=O` (configuration not stated), the TGI was more than 100 µM.

Compound `CCOC(=O)C1S(=O)(=O)OCCOS1(=O)=O` came in with a TGI of more than 100 µM.

In turn, `CC12OC(=O)C(C#N)C1(C)C1C(=O)CCCC12` (configuration not stated) registered a TGI of more than 100 µM.

Consider `Cc1nc2ccccc2c(=O)n1/N=C(\N=Nc1ccccc1Cl)c1ccccc1Cl`, for which the TGI is more than 100 µM.

`CCc1cccc(CC)c1NC(=O)/C(Cl)=C(/Cl)C(=O)O` had a TGI of more than 68.5 µM.

In turn, `CCCC(=O)CC(C)C(=O)C(=O)NC12CC3CC(CC(C3)C1)C2` (configuration not stated) came in with a TGI of more than 100 µM.

For the compound `CC(=O)OCC(=O)[C@@]1(O)CC[C@H]2[C@@H]3C[C@H](C)C4=CC(=O)C=C[C@]4(C)[C@@]3(F)[C@@H](O)C[C@@]21C`, the TGI was more than 100 µM.

The compound `Nc1nc(=S)c2c(ncn2CCO)[nH]1` displayed a TGI of more than 100 µM.

The compound `COc1cc(/C=C/c2csnn2)cc(OC)c1OC` came in with a TGI of more than 100 µM.

In turn, `c1ccc(C(c2ccccc2)c2ccccn2)cc1` registered a TGI of more than 100 µM.

A further assay deals with HOP-62 NSCLC. As to the kind of experiment: NCI-60 cell line screen, 48 h.
The compound `CCOC(=O)C1=C(NC)OCC1=O` registered a TGI of more than 100 µM.

In turn, `CCOC(=O)C1(C)CCC(C(C(=O)O)C(=O)O)CC1=O` (configuration not stated) had a TGI of more than 100 µM.

For `COC(=O)C1=C(C(=O)OC)C2(c3ccccc3)OC1(c1ccccc1)c1cc3ccccc3cc12`, the TGI was 27.1 µM.

`CC1NOC(=O)C1N=Nc1ccc(Cl)cc1Cl` (configuration not stated) gave a TGI of more than 100 µM.

Take `CCOC(=O)/C(=C/c1ccccn1)C(=O)c1ccccc1`: the TGI stood at 33 µM.

With `O=C(c1ccccc1)[C@H]1Nc2ccc(Cl)cc2[C@H]2CCC[C@@H]12`, the TGI was more than 100 µM.

Regarding `COc1ccc2nc(NC(=O)C(=O)CC(=O)c3ccc([N+](=O)[O-])cc3)sc2c1`, the TGI is more than 100 µM.

The compound `CC(=O)Nc1ccc(C2CC(c3ccc([N+](=O)[O-])cc3)=Nc3ccccc3S2=O)cc1` (configuration not stated) showed a TGI of 49.8 µM.

The compound `COc1cc(/C=C2\NC(=O)C(Cc3cc(OC)c(OC)c(C)c3OC)N(C(C)=O)C2=O)c(OC)c(C)c1OC` (configuration not stated) had a TGI of more than 100 µM.

With `C[C@H](C(=O)O)C(=O)NC(=O)N(Cc1ccccc1)N=O`, the TGI was more than 100 µM.

For the compound `NNC(=O)C(=O)NN=C(C(Cl)(Cl)CO)C(Cl)(Cl)CO`, the TGI was more than 100 µM.

`COc1ccc(/C=C2\C(=O)N(NC(C)=O)c3ccccc32)cc1` yielded a TGI of more than 100 µM.

For `O=C1N[C@@H]2CCCC[C@@H]2C12CCCCC2`, the TGI is more than 100 µM.

In turn, `COc1ccc2ccccc2c1C1=NC(C)(C)CO1` came in with a TGI of more than 100 µM.

Regarding `NC1=NC(Cn2nc(-c3ccccc3)c3ccccc3c2=O)=NNC(=O)N1`, the TGI is more than 100 µM.

The compound `O=C(CCCC(=O)Nc1ccc(Cl)cc1Cl)CC(=O)c1ccc2ccccc2c1` showed a TGI of more than 100 µM.

The compound `OC(c1ccccc1Br)(c1ccccc1Br)C(F)(F)F` registered a TGI of 52.8 µM.

For the compound `CC(=O)OC1COC(N2CCc3cc([N+](=O)[O-])ccc32)C(OC(C)=O)C1OC(C)=O` (configuration not stated), the TGI was more than 100 µM.

`CCOC(=O)C1S(=O)(=O)OCCOS1(=O)=O`: the TGI is more than 100 µM.

Compound `Cc1nc2ccccc2c(=O)n1/N=C(\N=Nc1ccccc1Cl)c1ccccc1Cl` displayed a TGI of more than 100 µM.
